{"source": "patent US8557866B2", "about": "“Isomeric mixtures of dinitro-octylphenyl esters and synergistic fungicidal mixtures therefrom” (Dow AgroSciences, LLC., priority 2007, dated 2013)", "key": {"[1]": {"tested_on": "wheat powdery mildew (ERYSGT)", "test": "Synergy test (Colby), 2 day curative glasshouse studies against wheat powdery mildew", "assay_type": "in vivo, Erysiphe graminis f.sp tritici on wheat", "conditions": "alone, ERYSGT 2 day curative"}, "[2]": {"tested_on": "Uncinula necator (UNCINE)", "test": "High volume spray greenhouse test, 1 day protectant, grape powdery mildew", "assay_type": "in vivo, Uncinula necator on grapes"}, "[3]": {"tested_on": "PYRIOR", "assay_type": "in vivo, PYRIOR on rice", "conditions": "rate 200 ppm, high volume test"}, "[4]": {"tested_on": "Venturia inaequalis (VENTIN)", "test": "High volume spray greenhouse test, 1 day protectant, apple scab", "assay_type": "in vivo, Venturia inaequalis on apple"}, "[5]": {"tested_on": "wheat brown rust (PUCCRT)", "test": "Synergy test (Colby), 1 day protectant glasshouse studies against wheat brown rust", "assay_type": "in vivo, Puccinia recondita on wheat", "conditions": "alone, PUCCRT 1 day protectant", "from_the_text": "(§1) Plants were inoculated with various pathogens 1 day after application of the composition of EXAMPLES 1, 4-5 (protectant tests) and 2 days before application for EXAMPLES 6-7 (curative tests). For all wheat trials, compositions were applied at growth stage 1.2, when the second leaf was expanded to ½ of its final size (12 days after seeds were first watered). Information on the growth stages of other plant species at the time composition application and on the propagation and inoculation procedures associated with each pathogen is given below.\n(§2) PUCCRT: Spores of the obligate pathogen PUCCRT were collected from infected plants with a vacuum apparatus and stored at 4° C. Approximately 0.1 g of fresh spores (stored at 4° C. for less than 30 days) was mixed with several drops of Tween 20. The thick spore paste was diluted to 100 ml with water and sprayed to run-off on wheat seed seedlings. Plants inoculated with PUCCRT were kept in a 20° C. dew chamber overnight and then transferred to a 20° C. growth chamber where symptoms developed in 8-9 days.\nA synergistic effect exists whenever the action of an active ingredient combination is greater than the sum of the action of the individual components.\nThe action to be expected E for a given active ingredient combination obeys the so-called COLBY formula and can be calculated as follows (COLBY, S. R. “Calculating synergistic and antagonistic responses of herbicide combination”. Weeds, Vol. 15, pages 20-22; 1967)\nX=percent action by active ingredient I using p ppm of active ingredient\nY=percent action by active ingredient II using q ppm of active ingredient\nAccording to Colby the expected additive action of active ingredients I+II using p+q ppm of active ingredients is E=X+Y−(X*Y)/100\nIf the action actual observed (O) is greater than the expected action (E), then the action of the combination is super additive, that is, there is a synergistic effect.\nProtectant activity of combinations against wheat brown rust (PUCCRT).\n1 day protectant glasshouse studies."}, "[6]": {"tested_on": "Puccinia recondita (PUCCRT)", "test": "High volume spray greenhouse test, 1 day protectant, wheat brown rust", "assay_type": "in vivo, Puccinia recondita on wheat", "experimental": "(§3) The composition of Example 1 was evaluated for fungicidal efficacy in a greenhouse on 9 diseases caused by plant pathogenic fungi (TABLE II). The plant cultivars used in this study were Ugni Blanc (grape), Bovowinka (crab apple), HH88 (sugar beet), M-9 (rice) and Yuma (wheat). Broad leaf plants and rice were grown in a soil-less peat-based potting mixture (Metromix), and wheat was grown in a 50/50 mix of mineral soil and Metromix. The wheat was grown at a temperature of 20° C. and all the other plants were grown at 25° C. Apple seeds were soaked in water, incubated for a short time in 200 ppm solution of benlate and washed again with water. The moist seeds were stored in a closed container at 7° C. (45° F.) and washed once a week with water until the radical had emerged 3 mm (approximately 30 days). The seeds were then planted and seedlings with 4-6 leaves were typically ready for inoculation 3 weeks later.\nThe composition of Example 1 was applied to seedlings at 100, 50, 25, and 12.5 ppm using a high volume spray application. The composition was formulated in water and serial dilutions made and then brought up to volume by adding water solution. Plants were sprayed to run off with 15 mL of solution on a turn-table sprayer with two opposing 4JAUPM air atomization nozzles (Spraying Systems) at a pressure of 138 kPa. Volume of spray solution on a per hectare basis is approximately 4000 L/ha. Plants were inoculated with the pathogens 1 day after application of the composition of Example 1 (1 day protectant test), incubated in a dew chamber for 24 hours with 100 percent relative humidity and then moved to an appropriate environment for disease expression for the duration of the test. Three replicate pots were sprayed for each pathogen/composition combination. Plants were evaluated for percent disease incidence 7-14 days after inoculation and the average percent disease control determined.\nas §1, §2"}, "[7]": {"tested_on": "Erysiphe cichoracearum (ERYSCI)", "test": "High volume spray greenhouse test, 1 day protectant, cucumber powdery mildew", "assay_type": "in vivo, Erysiphe cichoracearum on cucumbers", "conditions": "rate 200 ppm", "experimental": "as §3\n(§4) The composition of Example 1 was applied to seedlings at 100, 50, 25, and 12.5 ppm using a high volume spray application. The composition was formulated in water and serial dilutions made and then brought up to volume by adding water solution. […] Plants were evaluated for percent disease incidence 7-14 days after inoculation and the average percent disease control determined. […]"}, "[8]": {"tested_on": "Erysiphe graminis f.sp tritici (ERYSGT)", "test": "High volume spray greenhouse test, 1 day protectant, wheat powdery mildew", "assay_type": "in vivo, Erysiphe graminis f.sp tritici on wheat", "experimental": "as §3, §4"}}, "data": [{"molecule": "CO/C=C(/C(=O)OC)c1ccccc1Oc1cc(Oc2ccccc2C#N)ncn1", "note": "[Azoxystrobin, azoxystrobin]", "values": [{"measurement": "Observed Percent CONTROL", "setting": "[1]; 6.25 ppm", "value": 13.00, "unit": "%"}, {"measurement": "Observed Percent CONTROL", "setting": "[1]; 12.50 ppm", "value": 15.00, "unit": "%"}, {"measurement": "Observed Percent CONTROL", "setting": "[1]; 25 ppm", "value": 15, "unit": "%"}, {"measurement": "Observed Percent CONTROL", "setting": "[1]; 75 ppm", "value": 52, "unit": "%"}, {"measurement": "Observed Percent CONTROL", "setting": "[1]; 100 ppm", "value": 79, "unit": "%"}, {"measurement": "Percent Disease Control UNCINE", "setting": "[2]; rate 25 ppm", "value": "*** (*** is 80-100 percent control of disease)"}]}, {"molecule": "C/C=C/C(=O)Oc1c(C(C)CCCCCC)cc([N+](=O)[O-])cc1[N+](=O)[O-]", "note": "(centres unmarked) [Ex. 1, 2,4-dinitro-6-(1-methylheptyl)phenyl crotonate]", "values": [{"measurement": "Percent disease control", "setting": "[3]", "value": "*** (*** is 80-100 percent control of disease)"}, {"measurement": "Percent Disease Control VENTIN", "setting": "[4]; rate 12.5 ppm", "value": "** (** is 50-79 percent control of disease)"}, {"measurement": "Percent Disease Control VENTIN", "setting": "[4]; rate 25 ppm", "value": "** (** is 50-79 percent control of disease)"}, {"measurement": "Percent Disease Control VENTIN", "setting": "[4]; rate 50 ppm", "value": "** (** is 50-79 percent control of disease)"}, {"measurement": "Percent Disease Control VENTIN", "setting": "[4]; rate 100 ppm", "value": "*** (*** is 80-100 percent control of disease)"}, {"measurement": "Observed Percent CONTROL", "setting": "[5]; 12.50 ppm", "value": 0.00, "unit": "%"}, {"measurement": "Observed Percent CONTROL", "setting": "[5]; 25.00 ppm", "value": 11.76, "unit": "%"}, {"measurement": "Observed Percent CONTROL", "setting": "[5]; 50.00 ppm", "value": 33.33, "unit": "%"}, {"measurement": "Observed Percent CONTROL", "setting": "[5]; 75.00 ppm", "value": 68.63, "unit": "%"}, {"measurement": "Observed Percent CONTROL", "setting": "[1]; 75 ppm", "value": 23.00, "unit": "%"}, {"measurement": "Percent disease control", "setting": "[6]; PUCCRT, rate 200 ppm, high volume test", "value": "*** (*** is 80-100 percent control of disease)"}, {"measurement": "Percent Disease Control PUCCRT", "setting": "[6]; rate 12.5 ppm", "value": "* (* is 0-49 percent control of disease)"}, {"measurement": "Percent Disease Control PUCCRT", "setting": "[6]; rate 25 ppm", "value": "* (* is 0-49 percent control of disease)"}, {"measurement": "Percent Disease Control PUCCRT", "setting": "[6]; rate 50 ppm", "value": "** (** is 50-79 percent control of disease)"}, {"measurement": "Percent Disease Control PUCCRT", "setting": "[6]; rate 100 ppm", "value": "*** (*** is 80-100 percent control of disease)"}, {"measurement": "Percent Disease Control UNCINE", "setting": "[2]; rate 12.5 ppm", "value": "*** (*** is 80-100 percent control of disease)"}, {"measurement": "Percent Disease Control UNCINE", "setting": "[2]; rate 25 ppm", "value": "*** (*** is 80-100 percent control of disease)"}, {"measurement": "Percent Disease Control UNCINE", "setting": "[2]; rate 50 ppm", "value": "*** (*** is 80-100 percent control of disease)"}, {"measurement": "Percent Disease Control UNCINE", "setting": "[2]; rate 100 ppm", "value": "*** (*** is 80-100 percent control of disease)"}, {"measurement": "Percent disease control", "setting": "[7]", "value": "** (** is 50-79 percent control of disease)"}, {"measurement": "Percent Disease Control ERYSGT", "setting": "[8]; rate 50 ppm", "value": "*** (*** is 80-100 percent control of disease)"}, {"measurement": "Percent Disease Control ERYSGT", "setting": "[8]; rate 100 ppm", "value": "*** (*** is 80-100 percent control of disease)"}]}, {"molecule": "OC(c1ccc(Cl)cc1)(c1cncnc1)c1ccccc1Cl", "note": "(centres unmarked) [Fenarimol, fenarimol, reference compound]", "values": [{"measurement": "Percent Disease Control VENTIN", "setting": "[4]; rate 25 ppm", "value": "*** (*** is 80-100 percent control of disease)"}]}, {"molecule": "CCCCC(C#N)(Cn1cncn1)c1ccc(Cl)cc1", "note": "(centres unmarked) [Myclobutanil, myclobutanil]", "values": [{"measurement": "Observed Percent CONTROL", "setting": "[5]; 3.13 ppm", "value": 0.00, "unit": "%"}, {"measurement": "Observed Percent CONTROL", "setting": "[5]; 6.25 ppm", "value": 27.45, "unit": "%"}, {"measurement": "Observed Percent CONTROL", "setting": "[5]; 12.50 ppm", "value": 74.51, "unit": "%"}, {"measurement": "Observed Percent CONTROL", "setting": "[5]; 18.75 ppm", "value": 84.31, "unit": "%"}]}, {"molecule": "CCCN(CC)CC1COC2(CCC(C(C)(C)C)CC2)O1", "note": "(centres unmarked) [Spiroxamine, spiroxamine]", "values": [{"measurement": "Observed Percent CONTROL", "setting": "[1]; 12.50 ppm", "value": 15.00, "unit": "%"}]}, {"molecule": "mancozeb", "values": [{"measurement": "Observed Percent CONTROL", "setting": "[5]; 25.00 ppm", "value": 0.00, "unit": "%"}, {"measurement": "Observed Percent CONTROL", "setting": "[5]; 50.00 ppm", "value": 5.88, "unit": "%"}, {"measurement": "Observed Percent CONTROL", "setting": "[5]; 100.00 ppm", "value": 58.82, "unit": "%"}, {"measurement": "Observed Percent CONTROL", "setting": "[5]; 200.00 ppm", "value": 88.24, "unit": "%"}]}]}
